# ChEMBL document CHEMBL1126457, “Synthesis of novel targeted pro-prodrugs of anthracyclines potentially activated by a monoclonal antibody galactosidase conjugate (part 1)” (1992)
# Test system: L1210
# Assay: Compound was evaluated for cytotoxicity against L1210 murine leukemia cells
# Format: functional, Mus musculus
row,Structure (SMILES),Cytotoxicity [µg/mL]
1,COc1cccc2c1C(=O)c1c(O)c3c(c(O)c1C2=O)C[C@@](O)(C(C)=O)C[C@@H]3O[C@H]1C[C@H](N)[C@H](O)[C@H](C)O1 [DAUNORUBICIN],0.02
2,COc1cccc2c1C(=O)c1c(O)c3c(c(O)c1C2=O)C[C@@](O)(C(C)=O)C[C@@H]3O[C@H]1C[C@@H](NC(=O)OCc2ccc(O[C@H]3O[C@@H](CO)[C@H](O)[C@H](O)[C@@H]3O)cc2)[C@H](O)[C@H](C)O1,>1
3,COc1cccc2c1C(=O)c1c(O)c3c(c(O)c1C2=O)C[C@@](O)(C(C)=O)C[C@@H]3O[C@H]1C[C@@H](NC(=O)OCc2ccccc2O[C@H]2O[C@@H](CO)[C@H](O)[C@H](O)[C@@H]2O)[C@H](O)[C@H](C)O1,>1
